Legend:
[1] = system: spasticity related to multiple sclerosis; test: Ashworth score of spasticity, randomized placebo-controlled MS study; assay type: in vivo, human; settings: baseline to 13 weeks' follow-up
[2] = system: patients with multiple sclerosis; test: Timed 10 meter walk; assay type: in vivo, human; settings: baseline to follow-up (visit 7)
[3] = system: patients with multiple sclerosis; test: Category-rating scales of symptoms (patient reported secondary outcomes); assay type: in vivo, human
[4] = system: patients with multiple sclerosis; test: Patient assessment of treatment benefit at visit 8; assay type: in vivo, human
[5] = system: patients with multiple sclerosis; test: Adverse events reported by patients

Structure (SMILES): CCCCCc1cc(O)c2c(c1)OC(C)(C)[C@@H]1CCC(C)=C[C@@H]21 [delta-9-THC, (6aR-trans)-6a,7,8,10a-tetrahydro-6,6,9-trimethyl-3-pentyl-6H-dibenzo>b,d!pyran-1-ol]
- Mean (SD) change in Ashworth score, lower-body muscle groups [1]: 1.39 (5.21)
- Mean (SD) change in Ashworth score, upper-body muscle groups [1]: 0.48 (4.70)
- Mean (SD) change in total Ashworth score (baseline minus follow-up) ([1]; all muscle groups): 1.86 (7.95)
- Reduction of median time taken to walk 10 meters [2]: 12%
- Depression: Deterioration, patients ([3]; number of patients): 42
- Depression: Improvement, patients ([3]; number of patients): 36
- Depression: Same, patients ([3]; number of patients): 47
- Energy: Deterioration, patients ([3]; number of patients): 49
- Energy: Improvement, patients ([3]; number of patients): 61
- Energy: Same, patients ([3]; number of patients): 63
- Irritability: Deterioration, patients ([3]; number of patients): 32
- Irritability: Improvement, patients ([3]; number of patients): 37
- Irritability: Same, patients ([3]; number of patients): 42
- Pain: Deterioration, patients ([3]; number of patients): 22
- Pain: Improvement, patients ([3]; number of patients): 64
- Pain: Same, patients ([3]; number of patients): 43
- Shake/tremor: Deterioration, patients ([3]; number of patients): 32
- Shake/tremor: Improvement, patients ([3]; number of patients): 52
- Shake/tremor: Same, patients ([3]; number of patients): 44
- Sleep: Deterioration, patients ([3]; number of patients): 24
- Sleep: Improvement, patients ([3]; number of patients): 71
- Sleep: Same, patients ([3]; number of patients): 57
- Spasms: Deterioration, patients ([3]; number of patients): 37
- Spasms: Improvement, patients ([3]; number of patients): 81
- Spasms: Same, patients ([3]; number of patients): 49
- Spasticity: Deterioration, patients ([3]; number of patients): 47
- Spasticity: Improvement, patients ([3]; number of patients): 89
- Spasticity: Same, patients ([3]; number of patients): 40
- Tiredness: Deterioration, patients ([3]; number of patients): 76
- Tiredness: Improvement, patients ([3]; number of patients): 35
- Tiredness: Same, patients ([3]; number of patients): 46
- Depression: Deterioration ([3]; percent of patients): (34%)
- Depression: Improvement ([3]; percent of patients): (29%)
- Depression: Same ([3]; percent of patients): (38%)
- Energy: Deterioration ([3]; percent of patients): (28%)
- Energy: Improvement ([3]; percent of patients): (35%)
- Energy: Same ([3]; percent of patients): (36%)
- Irritability: Deterioration ([3]; percent of patients): (29%)
- Irritability: Improvement ([3]; percent of patients): (33%)
- Irritability: Same ([3]; percent of patients): (38%)
- Pain: Deterioration ([3]; percent of patients): (17%)
- Pain: Improvement ([3]; percent of patients): (50%)
- Pain: Same ([3]; percent of patients): (33%)
- Shake/tremor: Deterioration ([3]; percent of patients): (25%)
- Shake/tremor: Improvement ([3]; percent of patients): (41%)
- Shake/tremor: Same ([3]; percent of patients): (34%)
- Sleep: Deterioration ([3]; percent of patients): (16%)
- Sleep: Improvement ([3]; percent of patients): (47%)
- Sleep: Same ([3]; percent of patients): (38%)
- Spasms: Deterioration ([3]; percent of patients): (22%)
- Spasms: Improvement ([3]; percent of patients): (49%)
- Spasms: Same ([3]; percent of patients): (29%)
- Spasticity: Deterioration ([3]; percent of patients): (27%)
- Spasticity: Improvement ([3]; percent of patients): (51%)
- Spasticity: Same ([3]; percent of patients): (23%)
- Tiredness: Deterioration ([3]; percent of patients): (48%)
- Tiredness: Improvement ([3]; percent of patients): (22%)
- Tiredness: Same ([3]; percent of patients): (29%)
- Symptom improvement Bladder: No, patients ([4]; visit 8, number of patients): 97
- Symptom improvement Bladder: Yes, patients ([4]; visit 8, number of patients): 67
- Symptom improvement Pain: No, patients ([4]; visit 8, number of patients): 64
- Symptom improvement Pain: Yes, patients ([4]; visit 8, number of patients): 64
- Symptom improvement Spasticity: No, patients ([4]; visit 8, number of patients): 73
- Symptom improvement Spasticity: Yes, patients ([4]; visit 8, number of patients): 108
- Symptom improvement Tremor: No, patients ([4]; visit 8, number of patients): 67
- Symptom improvement Tremor: Yes, patients ([4]; visit 8, number of patients): 44
- Symptom improvement Bladder: No ([4]; visit 8, percent of patients): (59%)
- Symptom improvement Bladder: Yes ([4]; visit 8, percent of patients): (40%)
- Symptom improvement Pain: No ([4]; visit 8, percent of patients): (50%)
- Symptom improvement Pain: Yes ([4]; visit 8, percent of patients): (50%)
- Symptom improvement Spasticity: No ([4]; visit 8, percent of patients): (40%)
- Symptom improvement Spasticity: Yes ([4]; visit 8, percent of patients): (60%)
- Symptom improvement Tremor: No ([4]; visit 8, percent of patients): (60%)
- Symptom improvement Tremor: Yes ([4]; visit 8, percent of patients): (40%)
- Incidences of MS relapse by comparison with placebo ([5]; in words): greatly reduced
- Adverse event: Blocked/insertion of suprapubic catheter ([5]; number of events reported): 0
- Adverse event: Constipation ([5]; number of events reported): 0
- Adverse event: Grand mal seizure ([5]; number of events reported): 0
- Adverse event: MS relapse or possible relapse ([5]; number of events reported): 1
- Adverse event: Other ([5]; number of events reported): 11
- Adverse event: Pneumonia ([5]; number of events reported): 2
- Adverse event: Urinary tract infection ([5]; number of events reported): 3

Reference: patent publication US20060167084A1, “Delta-9-THC compositions and methods for treating symptoms associated with multiple sclerosis” (Unimed Pharmaceuticals, Inc., priority 2003, published 2006)
